Our source for the TGI values is PubChem BioAssay (NCI).

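Tested at 5 concentrations; 48 h exposure; 96-well plates; endpoints linearly interpolated, else capped at highest concentration. TGI: total growth inhibition.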 Some results are limits rather than exact numbers.

Some test systems named below: NCI-H460 lung; NCI-H23 lung; SNB-75 CNS; SK-MEL-28 melanoma; OVCAR-4 ovarian; OVCAR-5 ovarian; IGROV1 ovarian; LOX IMVI melanoma; HOP-62 NSCLC; ACHN renal; NCI-H226 lung; U251 CNS; SK-MEL-2 melanoma.
What all share (assay): NCI-60 cell line screen, 48 h

Take `O=C(CC(Cl)=C(Cl)Cl)c1ccccc1`: the TGI in the experiment with NCI-H460 lung, in the experiment with NCI-H23 lung, in the experiment on SNB-75 CNS, in the experiment with SK-MEL-28 melanoma, with OVCAR-4 ovarian and in the experiment with OVCAR-5 ovarian was above 100 µM in each case. The TGI is above 100 µM in the experiment on IGROV1 ovarian; 32.1 µM in the experiment on LOX IMVI melanoma; above 100 µM in the experiment with HOP-62 NSCLC; above 100 µM with ACHN renal; 72.5 µM with NCI-H226 lung; above 100 µM with U251 CNS. In addition, in the experiment on SK-MEL-2 melanoma, the TGI was above 100 µM.
On to `C[C@@H]1CC[C@@]2(OC1)O[C@H]1C[C@H]3[C@@H]4CC[C@H]5C[C@@H](OC6OC(CO)C(OC7OC(CO)C(O)C(OC8OCC(O)C(O)C8O)C7OC7OC(CO)C(O)C(O)C7O)C(O)C6O)[C@H](O)C[C@]5(C)[C@H]4CC[C@]3(C)[C@H]1[C@@H]2C` (stereo partly drawn), for which the TGI is 4.17 µM in the experiment on NCI-H460 lung; 7.39 µM in the experiment with NCI-H23 lung; 27.9 µM with SNB-75 CNS; 31 µM in the experiment on SK-MEL-28 melanoma; 4.62 µM with OVCAR-4 ovarian; 18.9 µM in the experiment on OVCAR-5 ovarian. In addition, the TGI turned out to be 8.31 µM in the experiment with IGROV1 ovarian; 7.89 µM with LOX IMVI melanoma; 2.94 µM with HOP-62 NSCLC; 8.87 µM with ACHN renal; 23.9 µM with NCI-H226 lung; 12.4 µM in the experiment with U251 CNS. In the experiment with SK-MEL-2 melanoma, this compound registered a TGI of 24.8 µM.
With `O=C(O)C1CCCCN1c1ccccc1[N+](=O)[O-]` (stereo not drawn), the TGI with NCI-H460 lung, in the experiment with NCI-H23 lung, in the experiment with SNB-75 CNS, in the experiment on OVCAR-4 ovarian, in the experiment on OVCAR-5 ovarian and in the experiment on IGROV1 ovarian was above 100 µM throughout. The TGI with LOX IMVI melanoma, in the experiment with HOP-62 NSCLC, in the experiment on ACHN renal, with NCI-H226 lung, in the experiment on U251 CNS and in the experiment on SK-MEL-2 melanoma was above 100 µM each time.
Consider `O=c1oc2cc(O)ccc2c(O)c1Cc1c(O)c2ccc(O)cc2oc1=O`, for which the TGI with NCI-H460 lung, in the experiment on NCI-H23 lung, in the experiment with SNB-75 CNS, in the experiment with SK-MEL-28 melanoma, with OVCAR-4 ovarian and with OVCAR-5 ovarian was above 100 µM each time. Further, the TGI in the experiment on IGROV1 ovarian, in the experiment on LOX IMVI melanoma, in the experiment on HOP-62 NSCLC, in the experiment on NCI-H226 lung, in the experiment on U251 CNS and with SK-MEL-2 melanoma was above 100 µM in each case.
Regarding `CN(Cc1cnc2c(N)nc(N)nc2n1)c1ccc(Cl)cc1`, the TGI is above 100 µM with NCI-H460 lung; above 100 µM in the experiment with NCI-H23 lung; 29.6 µM with SNB-75 CNS; above 100 µM in the experiment with OVCAR-5 ovarian; above 100 µM in the experiment on IGROV1 ovarian; above 100 µM with HOP-62 NSCLC. The TGI is above 100 µM with ACHN renal, 32.5 µM in the experiment on NCI-H226 lung, above 100 µM in the experiment with U251 CNS and above 100 µM in the experiment with SK-MEL-2 melanoma.
On to `BrCC[N+]12CC[N+](CCBr)(CC1)C2`, for which the TGI in the experiment on NCI-H460 lung, with NCI-H23 lung, in the experiment on SNB-75 CNS, in the experiment on SK-MEL-28 melanoma, in the experiment with OVCAR-4 ovarian and in the experiment with OVCAR-5 ovarian was above 100 µM throughout. In addition, the TGI in the experiment on IGROV1 ovarian, in the experiment on LOX IMVI melanoma, in the experiment with HOP-62 NSCLC, in the experiment with ACHN renal, in the experiment with NCI-H226 lung and with U251 CNS was above 100 µM in each case. The same compound registered a TGI in the experiment with SK-MEL-2 melanoma above 100 µM.
For `CCn1cnnc1-c1nsc2ccccc12`, the TGI is above 100 µM in the experiment on NCI-H460 lung; above 100 µM in the experiment on NCI-H23 lung; 41.8 µM in the experiment on SNB-75 CNS; above 100 µM in the experiment on SK-MEL-28 melanoma; above 100 µM in the experiment on OVCAR-4 ovarian; 92.2 µM in the experiment with OVCAR-5 ovarian. Further, the TGI with IGROV1 ovarian, in the experiment with LOX IMVI melanoma, in the experiment with HOP-62 NSCLC, in the experiment with ACHN renal, with U251 CNS and in the experiment with SK-MEL-2 melanoma was above 100 µM each time.
Consider `O=[N+]([O-])c1ccc(NNN=Nc2ccc(-c3nc4ccccc4s3)cc2)c([N+](=O)[O-])c1`, for which the TGI with NCI-H460 lung is 56.3 µM; in the experiment with NCI-H23 lung it was 59.3 µM; with SNB-75 CNS it was 82.1 µM; in the experiment on SK-MEL-28 melanoma, above 100 µM; in the experiment on OVCAR-4 ovarian, above 100 µM; in the experiment with OVCAR-5 ovarian, 71.5 µM. The TGI in the experiment on IGROV1 ovarian was found to be 49.5 µM; in the experiment with LOX IMVI melanoma, 32.7 µM; in the experiment with HOP-62 NSCLC, 48.4 µM; in the experiment with ACHN renal, 57.3 µM; with NCI-H226 lung it was 69.4 µM; with U251 CNS, 76.3 µM. In addition, the TGI with SK-MEL-2 melanoma is 41.8 µM.
In the case of `CC(=O)Nc1cccc(N=NN(C)C)c1`, the TGI in the experiment on NCI-H460 lung, in the experiment with NCI-H23 lung, in the experiment on SNB-75 CNS, with SK-MEL-28 melanoma, with OVCAR-4 ovarian and in the experiment on OVCAR-5 ovarian was above 100 µM throughout. Besides, the TGI in the experiment on IGROV1 ovarian, in the experiment on LOX IMVI melanoma, in the experiment on HOP-62 NSCLC, in the experiment on NCI-H226 lung, with U251 CNS and in the experiment with SK-MEL-2 melanoma was above 100 µM throughout.
For the compound `O=C(N/N=C/c1cc(Br)cc(Br)c1[O-])c1ccccc1O.O=C(N/N=C/c1cc(Br)cc(Br)c1[O-])c1ccccc1O.[Co+2]`, the TGI with NCI-H460 lung came out at 20 µM; in the experiment on NCI-H23 lung, 7.57 µM; in the experiment with SNB-75 CNS it was 15.3 µM; in the experiment with SK-MEL-28 melanoma, 14.5 µM; in the experiment on OVCAR-4 ovarian, 3.15 µM; with OVCAR-5 ovarian, 11.1 µM. Moreover, the TGI was determined as 8.44 µM with IGROV1 ovarian; 12.9 µM with LOX IMVI melanoma; 10.3 µM with HOP-62 NSCLC; 11.1 µM in the experiment on ACHN renal; 7.39 µM with NCI-H226 lung; 9.38 µM in the experiment with U251 CNS. Also, the TGI in the experiment with SK-MEL-2 melanoma was 5.4 µM.
